Measurements from patent US20220062299A1, “USE OF GLUCOCORTICOID STEROIDS IN PREVENTING AND TREATING CONDITIONS OF MUSCLE WASTING, AGING AND METABOLIC DISORDER” (NORTHWESTERN UNIVERSITY, priority 2018, published 2022).

Test system: GRE-KRE genomic sites (Mef2C, Bckdha, Pck1, Nmnat3)
Assay: Luciferase reporter experiments in electroporated mdx myofibers
Assay type: in vivo, mouse
Settings: prednisone pulse 1 mg/kg combined with Klf15 overexpression
Excerpt: Luciferase experiments in live myofibers. Luciferase plasmids containing regulatory fragments were obtained cloning genomic sequences in the pGL4.23 backbone (#E8411; Promega, Madison, Wis.) using the KpnI-XhoI sites upstream of the minimal promoter site. Fragments were cloned conserving the genomic orientation with regards to transcriptional orientation, adding KpnI and XhoI tails to the appropriate extremities via Phusion PCR. Wildtype fragments […] were cloned from wildtype C57Bl/6J genomic DNA, while mutated fragments (Δ sites) were amplified from ad-hoc synthetized DNA oligonucleotides, using genomic sequences from the C57Bl/6J genomic background (see Table 5 for a complete list of sequences). Flexor digitorum brevis (FDB) fibers were transfected by in vivo electroporation. Methods were described previously in (DiFranco et al., 2009) with modifications described in (Demonbreun and McNally, 2015). Briefly, the hindlimb footpad was injected with 10 μl hyaluronidase (8 units) (Cat #H4272, Sigma, St. Louis, Mo.). […] Ex vivo luciferase assay was performed on whole, electroporated FDB muscles. […] Luminescence was recorded at the Synergy HTX multi-mode 96-well plate reader (BioTek®, Winooski, Vt.). […] Results are expressed as fold change to average vehicle. All luciferase quantitation assays were conducted blinded to treatment groups. […]

SMILES: C[C@]12C=CC(=O)C=C1CC[C@@H]1[C@@H]2C(=O)C[C@@]2(C)[C@H]1CC[C@]2(O)C(=O)CO [prednisone, Prednisone]
- Fluc reporter activity of GRE-KRE constructs: additive effect
